Measured values reported in patent publication US4835154A, “1-aralykyl-5-piperazinylmethyl-2-mercaptoimidazoles and 2-alkylthioimidazoles and their use as dopamine-βhydroxylase inhibitors” (SmithKline Beckman Corporation, priority 1987, dated 1989).

Tests used:
DBH [1] = target: T1, DBH (Homo sapiens, UniProt P09172); conditions: literature reports; cited from earlier work
T1 sequence (P09172 1-617): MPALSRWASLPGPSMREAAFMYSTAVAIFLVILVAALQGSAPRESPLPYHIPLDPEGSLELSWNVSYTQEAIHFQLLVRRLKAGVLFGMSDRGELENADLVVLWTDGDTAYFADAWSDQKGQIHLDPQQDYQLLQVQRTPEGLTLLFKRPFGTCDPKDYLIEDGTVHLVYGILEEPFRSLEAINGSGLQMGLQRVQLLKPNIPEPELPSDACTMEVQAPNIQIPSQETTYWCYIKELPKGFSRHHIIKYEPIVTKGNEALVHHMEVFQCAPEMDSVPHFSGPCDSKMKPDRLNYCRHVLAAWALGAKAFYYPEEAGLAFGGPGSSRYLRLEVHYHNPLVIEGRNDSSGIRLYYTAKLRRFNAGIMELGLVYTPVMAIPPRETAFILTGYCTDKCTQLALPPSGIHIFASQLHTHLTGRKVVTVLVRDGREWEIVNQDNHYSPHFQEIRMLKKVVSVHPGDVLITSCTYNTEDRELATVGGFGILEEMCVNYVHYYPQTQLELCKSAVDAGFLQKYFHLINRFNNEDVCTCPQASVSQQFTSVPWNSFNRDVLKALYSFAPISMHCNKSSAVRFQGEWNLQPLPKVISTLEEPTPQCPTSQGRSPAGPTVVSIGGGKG

DBH [2] = target: T2, DBH (Bos taurus, UniProt P15101); assay: in vitro DBH inhibition, conversion of tyramine to octopamine; type: biochemical; conditions: molar concentration of compound at which DBH activity was halved; octopamine assayed as p-hydroxybenzaldehyde at 330 nm
T2 sequence (P15101 1-610): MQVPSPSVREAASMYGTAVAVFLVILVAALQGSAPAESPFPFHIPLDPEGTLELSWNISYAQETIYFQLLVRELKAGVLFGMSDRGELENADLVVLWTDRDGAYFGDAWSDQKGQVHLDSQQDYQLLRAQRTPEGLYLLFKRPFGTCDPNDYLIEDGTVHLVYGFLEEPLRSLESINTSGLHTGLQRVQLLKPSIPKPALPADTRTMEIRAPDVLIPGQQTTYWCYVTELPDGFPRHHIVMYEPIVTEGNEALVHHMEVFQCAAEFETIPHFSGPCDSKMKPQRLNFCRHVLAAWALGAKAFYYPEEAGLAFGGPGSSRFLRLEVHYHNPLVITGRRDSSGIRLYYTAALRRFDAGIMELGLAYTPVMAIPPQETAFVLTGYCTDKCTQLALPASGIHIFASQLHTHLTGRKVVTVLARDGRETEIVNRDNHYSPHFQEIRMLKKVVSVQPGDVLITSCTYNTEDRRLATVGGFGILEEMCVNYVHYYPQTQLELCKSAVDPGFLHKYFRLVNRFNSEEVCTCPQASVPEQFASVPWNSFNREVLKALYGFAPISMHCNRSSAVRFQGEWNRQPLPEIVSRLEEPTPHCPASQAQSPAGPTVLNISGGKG
Method: Listed in Table I is the compound of the invention that was tested for in vitro DBH inhibition by a standard procedure for assaying conversion of tyramine to octopamine in the presence of DBH. J. J. Pisano, et al., Biochim. Biophys. Acta, 43, 566-568 (1960). Octopamine was assayed following sodium periodate oxidation to p-hydroxybenzaldehyde by measuring spectrophotometric absorbance at 330 nm. In Table I, inhibition is given in molar concentration of compound at which DBH activity was halved (IC50). Fusaric acid, by this test has an IC50 of 8×10^-7 M.

[3] = test system: spontaneously hypertensive rats; assay: mean arterial blood pressure in spontaneously hypertensive rats; type: in vivo; conditions: 50 mg/kg intraperitoneally, vs vehicle-treated controls
Method: Further, spontaneously hypertensive rats were treated with the compound in Table I at a dose of 50 mg/kg intraperitoneally, and mean arterial blood pressure was monitored for 260 minutes using indwelling cannulae in the tail arteries. […] The maximal blood pressure reduction was approximately 25 mmHg.

[4] = Teresawa et al., 1971; cited from earlier work
[5] = Ehrreich et al., 1976; cited from earlier work

Compound	DBH inhibition (in words) (DBH [1])	further results
NOCc1ccccc1 [Benzyloxyamine]	competitive inhibitors	–
O=C(O)c1ccc(CCC(Br)CBr)cn1 (stereo not drawn) [5-(3,4-dibromobutyl)picolinic acid]	DBH inhibitors	–
CN(C)C(=S)SCc1ccc(C(=O)O)nc1 [5-(dimethyldithiocarbamoylmethyl)picolinic acid]	DBH inhibitors	–
CN1CCN(Cc2cnc(S)n2Cc2cc(F)cc(F)c2)CC1 [Example 1, 1-(3,5-Difluorobenzyl)-5-[(4-methyl-1-piperazinyl)methyl]-2-mercaptoimidazole]	–	IC50 (DBH [2]): 590 µM; maximal blood pressure reduction ([3]; mean arterial blood pressure monitored for 260 minutes): approximately 25 mmHg; time to significant blood pressure reductions following treatment [3]: ≤ 30 min; blood pressure effect ([3]; within 30 minutes): significant blood pressure reductions
CCCCc1ccc(C(=O)O)nc1 [Fusaric acid]	–	hepatotoxicity [4]: hepatotoxic
CCCCc1ccc(C(N)=O)nc1 [Bupicomide, 5-(n-butyl)picolinamine]	DBH inhibitor	antihypertensive activity [5]: antihypertensive activity
NNCc1ccccc1 [benzylhydrazine]	competitive inhibitors	–
O=C(O)c1ccc(CCCCCl)cn1 [5-(4-chlorobutyl) picolinic acid]	inhibit DBH	–
